Laboratory results as given in US20050127321A1, “Compositions containing lactone compatibilizers” (priority 2003, published 2005).

Tested on: not listed separately
Assay: Kinematic viscosity of lactone compatibilizers
Assay type: physicochemical
Conditions: at 40° C.

For CCCCCC[C@@H]1C[C@H](C)OC1=O (relative stereo) [cis-3-hexyl-5-methyl-dihydro-furan-2-one], the kinematic viscosity was 4.5 centistokes.

Tested on: not listed separately
Assay: Phase separation temperature of compatibilizer / Zerol 150 alkylbenzene oil / R134a mixtures (cloud point on cooling)
Assay type: physicochemical
Conditions: near 25.0 wt % Zerol 150 : 25.0 wt % compatibilizer : 50.0 wt % R134a, cooled in one degree intervals
Description: The phase separation temperatures for lactone compatibilizers of the present invention when combined with Zerol® 150 alkylbenzene oil were determined. […] The glass tube was sealed at one end, and the other end was sealed to a Teflon® vacuum valve stopcock. This entire apparatus was tared, and was attached at valve E to a high vacuum line capable of achieving 10^−4 to 10^−5 torr (See FIG. 1). The pressure was measured by a mercury manometer, F. All five valves, A, B, C, D and E were attached to the manifold via greased ground-glass joints. Valve A joined the manifold to the source of refrigerant. Valve B joined a flask comprising fluorocarbon refrigerant, once loaded into the manifold. Valve C joined a 125.5 mL calibrated vessel to the manifold. And valve D joined a 5 mm OD in leg glass tube 150 mm in length containing oil and compatibilizer.
The glass tube, refrigerant container, and calibrated volume were evacuated by opening valve B, C, D, and E, and keeping valve A closed. After vacuum was achieved, Valve D and E were closed. An atmosphere of refrigerant was introduced into the vacuum line by opening Valve A. After closing valve A, the refrigerant was condensed into the refrigerant container by cooling with a liquid nitrogen bath. Valve E was opened to remove any residual air. Valve E was closed, and the refrigerant container was allowed to warm until the desired pressure was reached as indicated on the mercury manometer whereupon Valve C was closed trapping a known amount of refrigerant in the calibrated volume. The excess refrigerant was condensed back into the refrigerant container by cooling with a liquid nitrogen bath, Valve B was closed, and Valve E was opened to remove all residual gases. The glass tube was cooled in a liquid nitrogen bath, and the refrigerant was transferred from the calibrated volume to the glass tube by closing Valve E, and opening Valves C and D. Valve D was then sealed after all the refrigerant had transferred into the glass tube. The glass tube apparatus was removed from the vacuum line, and the tube was allowed to warm while maintaining the tube behind appropriate protective shielding for safety purposes throughout the rest of the procedure owing to the positive pressure in the glass tube. After removal of grease from the ground glass joint, the previously tared glass tube apparatus was weighed to ensure the appropriate mass of refrigerant had been added to the tube. In a typical experiment, the composition in the tube was near 50.0 wt % R134a, 25.0 wt % Zerol® 150 and 25.0 wt % of compatibilizer.
The phase separation temperature of the mixture was determined by manually shaking the contents of the glass tube while cooling the mixture by one degree Centigrade intervals until a cloudpoint/phase separation was visually observed. Results are shown in Table II in comparison with an amide compatibilizer, N-octyl-pyrrolidin-2-one.

Going from CC(CC[C@@H]1C[C@H](C)OC1=O)CC(C)(C)C (relative stereo) [cis-3-(3,5,5-trimethylhexyl)-5-methyl-dihydro-furan-2-one] to CCCCCC[C@@H]1C[C@H](C)OC1=O (relative stereo) [cis-3-hexyl-5-methyl-dihydro-furan-2-one], the “Phase Separation Temperature” value falls from 2 deg C to −9 deg C.

Compared with CCCCCC[C@]1(C)CCC(=O)O1 (stereo in doubt) [5-methyl-5-hexyl-dihydro-furan-2-one], CCCCCCCC[C@]1(C)CCC(=O)O1 (stereo in doubt) [5-methyl-5-octyl-dihydro-furan-2-one] is lower in “Phase Separation Temperature” value: −2 deg C for the first, −4 deg C for the second.

Compared with O=C1OC[C@H]2CCCC[C@@H]12 (stereo in doubt) [Hexahydro-isobenzofuran-1-one], CCCCCCCC1CCOC1=O (stereo not drawn) [3-heptyldihydro-furan-2-one] is lower in “Phase Separation Temperature” value: 4 deg C for the first, 0 deg C for the second.

Going from CCCCCCC1CCOC1=O (stereo not drawn) [3-hexyldihydro-furan-2-one] to CC(CC=C1C[C@@H](C)OC1=O)CC(C)(C)C (stereo partly drawn) [(E,Z)-3-(3,5,5-trimethylhexylidene)-5-methyl-dihydrofuran-2-one], the “Phase Separation Temperature” value falls from 5 deg C to 3 deg C.

First: CCCCCCC=C1CC(C)OC1=O (stereo not drawn) [(E,Z)-3-Heptylidene-5-methyl-dihydro-furan-2-one]
Second: CCCCCC=C1CC(C)OC1=O (stereo not drawn) [(E,Z)-3-Hexylidene-5-methyl-dihydro-furan-2-one]
The “Phase Separation Temperature” value of the first is higher: −6 deg C for the first, −7 deg C for the second.

Compared with CCCC=C1CC(C)OC1=O (stereo not drawn) [(E,Z)-3-butylidene-5-methyl-dihydro-furan-2-one], CC1C/C(=C/C2CCCCC2)C(=O)O1 (stereo not drawn) [(E,Z)-3-cyclohexylmethylidene-5-methyl-dihydrofuran-2-one] is lower in “Phase Separation Temperature” value: 9 deg C for the first, −2 deg C for the second.

Compared with CC=C1CC(C)OC1=O (stereo not drawn) [(E,Z)-3-ethylidene-5-methyl-dihydro-furan-2-one], CCCCCCCCC=C1CC(C)OC1=O (stereo not drawn) [(E,Z)-3-nonylidene-5-methyl-dihydro-furan-2-one] is lower in “Phase Separation Temperature” value: 24 deg C for the first, 4 deg C for the second.

Going from CCCCCCCC=C1CC(C)OC1=O (stereo not drawn) [(E,Z)-3-octylidene-5-methyl-dihydro-furan-2-one] to CCCCC=C1CC(C)OC1=O (stereo not drawn) [(E,Z)-3-pentylidene-5-methyl-dihydro-furan-2-one], the “Phase Separation Temperature” value rises from −8 deg C to 0 deg C.

First: CCC=C1CC(C)OC1=O (stereo not drawn) [(E,Z)-3-propylidene-5-methyl-dihydro-furan-2-one]
Second: CCCCCCCCN1CCCC1=O [N-octylpyrrolidin-2-one, reference compound]
The “Phase Separation Temperature” value of the first is higher: 12 deg C for the first, −4 deg C for the second.

Going from CCCC[C@@H]1C[C@H](C)OC1=O [cis-(3-butyl-5-methyl)-dihydro-furan-2-one] to CCCCC[C@@H]1C[C@H](C)OC1=O [cis-(3-pentyl-5-methyl)-dihydro-furan-2-one], the “Phase Separation Temperature” value falls from 10 deg C to −1 deg C.

Compared with CCC[C@@H]1C[C@H](C)OC1=O [cis-(3-propyl-5-methyl)-dihydro-furan-2-one], CCCCCC1CCCC(=O)O1 (stereo not drawn) [delta-decalactone] is lower in “Phase Separation Temperature” value: 14 deg C for the first, −10 deg C for the second.

Compared with CCCCCCCC1CCCC(=O)O1 (stereo not drawn) [delta-dodecalactone], CCCCCCC1CCCC(=O)O1 (stereo not drawn) [delta-undecalactone] is higher in “Phase Separation Temperature” value: −13 deg C for the first, −12 deg C for the second.

Compared with CCCCOC(=O)c1ccccc1C(=O)OCCCC [dibutyl phthalate, reference compound], CCCCCCC1CCC(=O)O1 (stereo not drawn) [gamma-decalactone] is lower in “Phase Separation Temperature” value: 18 deg C for the first, −3 deg C for the second.

Compared with CCCCCCCCC1CCC(=O)O1 (stereo not drawn) [gamma-dodecalactone], CCCCCC1CCC(=O)O1 (stereo not drawn) [gamma-nonalactone] is higher in “Phase Separation Temperature” value: −6 deg C for the first, −2 deg C for the second.

First: CCCCC1CCC(=O)O1 (stereo not drawn) [gamma-octalactone]
Second: (E,Z)-3-decylidene-5-methyl-dihydro-furan-2-one
The “Phase Separation Temperature” value of the first is lower: 10 deg C for the first, 13 deg C for the second.

With CC[C@@H]1C[C@H](C)OC1=O (relative stereo) [cis-3-ethyl-5-methyl-dihydro-furan-2-one] the “Phase Separation Temperature” value was greater than 25 deg C.
With CCCCCCC[C@@H]1C[C@H](C)OC1=O (relative stereo) [cis-3-heptyl-5-methyl-dihydro-furan-2-one] the “Phase Separation Temperature” value was “phase gelled and/or precipitated at −11 deg C”.
In the case of CCC1CCC(=O)O1 (stereo not drawn) [gamma-caprolactone, reference compound], the “Phase Separation Temperature” value is reported as “Immiscible with Zerol ®150”.

Tested on: New Zealand White rabbits
Assay: Acute skin irritation/corrosive potential, scored on the Draize scale
Assay type: in vivo
Conditions: 0.5 mL undiluted, approximately 4 hours exposure, semi-occlusive, evaluated up to 72 hours
Description: Compositions of the present invention were evaluated for acute skin irritation/corrosive potential in New Zealand White rabbits. An aliquot of 0.5 mL of undiluted compatibilizer was administered to a localized site on the backs of the animals. The test sites were covered with a semi-oclusive dressing to ensure contact between the skin and the test substance. The animals were exposed to the test substances for approximately 4 hours. The test sites were evaluated for erythrema, edema, and other evidence of dermal effects for up to 72 hours following the removal of the test substance. Observed dermal effects were scored according to the Draize scale. The reversibility of dermal effects was assessed for up to 14 days, as necessary.

In the case of 5-methyl-n-octyl-pyrrolidin-2-one, the Classification is reported as “Corrosive”.
For CCCCCCC1CC(C)OC1=O (stereo not drawn) [3-hexyl-5-methyl-gammabutyrolactone], the Classification was “Not a skin irritant”.
For CC1CCC(=O)N1C1CCCCC1 (stereo not drawn) [5-methyl-n-cyclohexyl pyrrolidin-2-one], the Classification was “Corrosive”.
For CCCCCCCCC(=O)N(C)C [N,N-Dimethylnonanamide], the Classification was “Severe irritant”.
With CCCCCCCCN1CCCC1=O [N-octylpyrrolidin-2-one, reference compound] the Classification was “Severe irritant”.

For 5-methyl-n-octyl-pyrrolidin-2-one, the “Observations (dermal effects)” value was “Necrosis”.
With CCCCCCC1CC(C)OC1=O (stereo not drawn) [3-hexyl-5-methyl-gammabutyrolactone] the “Observations (dermal effects)” value was “No irritation”.
In the case of CC1CCC(=O)N1C1CCCCC1 (stereo not drawn) [5-methyl-n-cyclohexyl pyrrolidin-2-one], the “Observations (dermal effects)” value is reported as “Necrosis”.
